We go through 35 compounds from US20130131116A1, “PEST CONTROL COMPOSITION” (SUMITOMO CHEMICAL COMPANY, LIMITED, priority 2010, published 2013).

The subject of data set [1] is Haemaphysalis longicornis. The data set can be described thus: Test Example 3: Insecticidal Test on Haemaphysalis longicornis By Treating Glass Surface. As to conditions: for Mortality Rate (%): after 2 days. It counts as in vivo. The protocol:
Acetone solutions were each prepared for the present hydrazide compounds and the present ester compounds. To inner walls of a glass screw tube and lid (NO. 5, manufactured by Maruemu Corporation), 0.2 mL of the acetone solution was uniformly applied. […] The lid is closed tightly, and the number of dead ticks is examined after 2 days.

The mark [2] stands for this setting: Haemaphysalis longicornis, 48 h, read-out: Mortality Rate (%).

In the case of `O=C(NNc1cc(C2=NOC(c3cc(Cl)cc(Cl)c3)(C(F)(F)F)C2)ccc1Cl)c1ccncc1` (stereo not drawn), the melting point is 115 °C.

In turn, `CC(=O)NNc1cc(C2=NOC(c3cc(Cl)cc(Cl)c3)(C(F)(F)F)C2)ccc1Cl` (stereo not drawn) came in with a melting point of 94 °C.

Take `CCCC(=O)NNc1cc(C2=NOC(c3cc(Cl)cc(Cl)c3)(C(F)(F)F)C2)ccc1Cl` (stereo not drawn): the melting point was determined as 82 °C.

`O=C(NNc1cc(C2=NOC(c3cc(Cl)cc(Cl)c3)(C(F)(F)F)C2)ccc1Cl)c1ccc([N+](=O)[O-])cc1` (stereo not drawn) displayed a melting point of 231 °C.

The compound `CC(C)(C)OC(=O)N(NC(=O)C1CC1)c1cc(C2=NOC(c3cc(Cl)cc(Cl)c3)(C(F)(F)F)C2)ccc1Cl` (stereo not drawn) returned a melting point of 180 °C.

For the compound `C=CC(=O)NN(C(=O)OC(C)(C)C)c1cc(C2=NOC(c3cc(Cl)cc(Cl)c3)(C(F)(F)F)C2)ccc1Cl` (stereo not drawn), the melting point was determined as 119 °C.

As for `CC(C)=CC1(C=C(Cl)Cl)C(C(=O)OCc2cccc(Oc3ccccc3)c2)C1(C)C` (stereo not drawn) [Present ester compound (2), 3-phenoxybenzyl 3-(2,2-dichlorovinyl)-2,2-dimethyl-3-(2-methylprop-1-enyl)cyclopropanecarboxylate, reference compound], the mortality at 0.8 mg/m2 in data set [1] (setting [2]) came out at 13%.

`O=C(NNc1cc(C2=NOC(c3cc(Cl)cc(Cl)c3)(C(F)(F)F)C2)ccc1Cl)Nc1ccc([N+](=O)[O-])cc1` (stereo not drawn) came in with a melting point of 201 °C.

Turning to `O=C(NNc1cc(C2=NOC(c3cc(Cl)cc(Cl)c3)(C(F)(F)F)C2)ccc1Cl)c1ccccc1` (stereo not drawn), the melting point was 105 °C.

`FC(F)(F)C1(c2cc(Cl)cc(Cl)c2)CC(c2ccc(Cl)c(NNC(=S)Nc3ccccc3)c2)=NO1` (stereo not drawn) returned a melting point of 213 °C.

`CC(=O)N(C)N(C)c1cccc(C2=NOC(c3cc(Cl)cc(Cl)c3)(C(F)(F)F)C2)c1` (stereo not drawn) showed a melting point of 151 °C.

`O=C(NNc1cc(C2=NOC(c3cc(Cl)cc(Cl)c3)(C(F)(F)F)C2)ccc1Cl)C(F)(F)F` (stereo not drawn): the melting point is 64 °C.

`CN(C)C(=O)NNc1cc(C2=NOC(c3cc(Cl)cc(Cl)c3)(C(F)(F)F)C2)ccc1Cl` (stereo not drawn): the melting point amounted to 212 °C.

Turning to `COCC(=O)NN(C(C)=O)c1cc(C2=NOC(c3cc(Cl)cc(Cl)c3)(C(F)(F)F)C2)ccc1Cl` (stereo not drawn), the melting point is 164 °C.

`CC(=O)N(C)Nc1cccc(C2=NOC(c3cc(Cl)cc(Cl)c3)(C(F)(F)F)C2)c1` (stereo not drawn) returned a melting point of 88 °C.

Compound `O=C(NN(C(=O)c1ccccc1)c1cc(C2=NOC(c3cc(Cl)cc(Cl)c3)(C(F)(F)F)C2)ccc1Cl)C1CC1` (stereo not drawn) came in with a melting point of 172 °C.

Regarding `O=C(NNc1cc(C2=NOC(c3cc(Cl)cc(Cl)c3)(C(F)(F)F)C2)ccc1Cl)Nc1ccccc1` (stereo not drawn), the melting point is 131 °C.

`CC(=O)NNc1cccc(C2=NOC(c3cc(Cl)cc(Cl)c3)(C(F)(F)F)C2)c1` (stereo not drawn) showed a melting point of 100 °C.

`FC(F)(F)C1(c2cc(Cl)cc(Cl)c2)CC(c2ccc(Cl)c(NNC(=S)NC3CCCCC3)c2)=NO1` (stereo not drawn) displayed a melting point of 126 °C.

`O=C(NNc1cc(C2=NOC(c3cc(Cl)cc(Cl)c3)(C(F)(F)F)C2)ccc1Cl)c1cccnc1` (stereo not drawn) registered a melting point of 205 °C.

Take `O=C(CCC(F)(F)F)NNc1cc(C2=NOC(c3cc(Cl)cc(Cl)c3)(C(F)(F)F)C2)ccc1Cl` (stereo not drawn) [Present hydrazide compound (17), N′-{5-[5-(3,5-dichlorophenyl)-5-trifluoromethyl-4,5-dihydroisoxazol-3-yl]-2-chlorophenyl}-4,4,4-trifluorobutyrohydrazide]: in data set [1] (setting [2]), the mortality at 0.032 mg/m2 came to 3.3% and the mortality at 0.16 mg/m2 came out at 40%.

For `Cc1ccc(C2=NOC(c3cc(Cl)cc(Cl)c3)(C(F)(F)F)C2)cc1NNC(=O)OC(C)C` (stereo not drawn), the melting point came to 71 °C.

As to `CCC(=O)NNc1cc(C2=NOC(c3cc(Cl)cc(Cl)c3)(C(F)(F)F)C2)ccc1Cl` (stereo not drawn), the melting point came out at 92 °C.

The compound `O=C(CCC(F)(F)F)NN(C(=O)c1ccccc1)c1cc(C2=NOC(c3cc(Cl)cc(Cl)c3)(C(F)(F)F)C2)ccc1Cl` (stereo not drawn) gave a melting point of 157 °C.

Turning to `O=C(/C=C/c1ccccc1)NNc1cc(C2=NOC(c3cc(Cl)cc(Cl)c3)(C(F)(F)F)C2)ccc1Cl` (stereo not drawn), the melting point was determined as 205 °C.

In turn, `CC(=O)NN(C(C)=O)c1cc(C2=NOC(c3cc(Cl)cc(Cl)c3)(C(F)(F)F)C2)ccc1Cl` (stereo not drawn) displayed a melting point of 108 °C.

Turning to `CC(=O)NN(C(=O)c1ccccc1)c1cc(C2=NOC(c3cc(Cl)cc(Cl)c3)(C(F)(F)F)C2)ccc1Cl` (stereo not drawn), the melting point was found to be 142 °C.

Regarding `CC(=O)N(NC(=O)C1CC1)c1cc(C2=NOC(c3cc(Cl)cc(Cl)c3)(C(F)(F)F)C2)ccc1Cl` (stereo not drawn), the melting point stood at 160 °C.

`CN(NC(=O)CCC(F)(F)F)c1cc(C2=NOC(c3cc(Cl)cc(Cl)c3)(C(F)(F)F)C2)ccc1Cl` (stereo not drawn) [Present hydrazide compound (31), N′-methyl-N′-{2-chloro-5-[5-(3,5-dichlorophenyl)-5-trifluoromethyl-4,5-dihydroisoxazol-3-yl]phenyl}-4,4,4-trifluorobutyrohydrazide]: the mortality at 0.0064 mg/m2 in data set [1] (setting [2]) was 3.3%.

With “3-phenoxybenzyl (1R)-cis/trans-2,2-dimethyl-3-(2-methylprop-1-enyl)cyclopropanecarboxylate [Present ester compound (1), reference compound]”, in data set [1] (ester compound alone 4 mg/m^2, glass surface), the “Mortality Rate (%)” value was found to be 15%.

Regarding `CC(C)=C[C@@H]1[C@@H](C(=O)O[C@H](C#N)c2cccc(Oc3ccccc3)c2)C1(C)C` (relative stereo) [Present ester compound (3), (1S)-α-cyano-3-phenoxybenzyl (1R)-trans-2,2-dimethyl-3-(2-methylprop-1-enyl)cyclopropanecarboxylate, reference compound], the “Mortality Rate (%)” value in data set [1] (ester compound alone 0.8 mg/m^2, glass surface) is 10%.

Consider `COc1ccc(C(=O)NNc2cc(C3=NOC(c4cc(Cl)cc(Cl)c4)(C(F)(F)F)C3)ccc2Cl)cc1` (stereo not drawn), for which the melting point is 131 °C.

`CC(=O)N(NC(=O)c1ccccc1)c1cc(C2=NOC(c3cc(Cl)cc(Cl)c3)(C(F)(F)F)C2)ccc1Cl` (stereo not drawn) displayed a melting point of 107 °C.

For the compound `C=CC(=O)NNc1cc(C2=NOC(c3cc(Cl)cc(Cl)c3)(C(F)(F)F)C2)ccc1Cl` (stereo not drawn), the melting point turned out to be 90 °C.

For `CC(=O)N(C)N(C(=O)OC(C)(C)C)c1cccc(C2=NOC(c3cc(Cl)cc(Cl)c3)(C(F)(F)F)C2)c1` (stereo not drawn), the melting point is 79 °C.
